Results published in US20150125498A1, “NEW PARTICLE STABILIZED EMULSIONS AND FOAMS” (SPEXIMO AB, priority 2010, published 2015).

Columns and labels:
[1] = In vitro skin penetration of methyl salicylate in flow diffusion cell (Experiment 9); format: in vitro ADME, pig
Description: The emulsions contained 56% oil and 214 mg starch/ml oil (corresponding to sample M in experiment 8). The total volume was 7 ml and each experiment was performed in triplicate. Methyl salicylate, dissolved in the oil phase, was used as control substance for studying the permeability into the skin.
The skin diffusion measurement was performed in a flow cell by monitoring the transport of methyl salicylate from the three different topical formulations across pigskin membrane and silicone membrane under a flow of phosphate buffer with pH 6.8. The diffusion experiments were performed in seven-chamber diffusion cells at 32° C. and the donor and receptor phase were separated by a membrane with a diffusion area of 0.64 cm^2 (9 mm Ø). About 1 g of the emulsions (donor phase) were spread uniformly on the membranes. The cells were covered with parafilm to avoid evaporation. Buffer flowed through the pump (IsmatecIPN-16, L852) with a flow of 2 ml/h. Samples were collected every two hours during 12 hours and were analyzed using a spectrophotometer (Varian Carry 50Bio) at the detection wavelength for methyl salicylate (302 nm).

adult humans = conditions: cited from earlier work

SMILES: COC(=O)c1ccccc1O [methyl salicylate, Methyl salicylate]
- Steady state flux of methyl salicylate ([1]; pig skin, 32° C., 56% oil starch Pickering emulsions): around 8 μg/(cm2*h)
- Flux compared with buffer solutions of the same methyl salicylate concentration ([1]; similar experimental set up observed previously): nearly two times higher
- LD50 (adult humans): 500 mg/kg
